Results on 14 molecules are retold here after ChEMBL document CHEMBL4270499, “Recent discoveries of anticancer flavonoids” (Eur J Med Chem, 2017).

Structures are written as SMILES. Converted amounts (≈) assume the structure as drawn.

The test system of one assay is Caco-2. Put plainly: Cytotoxicity in human Caco2 cells after 72 hrs by MTT assay. The assay is classed as functional, cell-based. Particulars: Caco-2, 72 h.
A further assay deals with A-375. As to the kind of experiment: Cytotoxicity in human A375 cells. The format is functional, cell-based.
The subject of another assay is CCRF-CEM. As to the kind of experiment: Cytotoxicity in human CCRF-CEM cells by resazurin reduction assay. The format is functional, cell-based.
Assay [1] deals with K562. Put plainly: Cytotoxicity in human K562 cells by SRB assay. The format is functional, cell-based. On the technique in general: In SRB staining, fixed cells bind dye roughly in proportion to their protein.
Assay [2] deals with K562. As to the kind of experiment: Cytotoxicity in human K562 cells after 24 hrs by trypan blue exclusion assay. The assay is classed as functional, cell-based. The following applies: K562, 24 h.
A short description of assay [3]: Inhibition of nuclear factor-kappa-B (unknown origin) expressed in human K562 cells pre-incubated for 2 hrs followed by TNFalpha stimulation for 6 hrs by luciferase reporter gene assay. The assay is classed as cell-based. (In general: Reporter assays use an easily measured gene product as a stand-in for the process of interest.)

For orientation: IC50 means the point on the concentration scale where inhibition reaches its midpoint. Low values mean inhibition by little substance, high ones a need for much substance. `O=c1c(O)c(-c2ccccc2)oc2ccccc12` [FLAVONOL]: the IC50 in the assay with Caco-2 came out at 42.1 µM.

The molecule `O=c1c(O)c(-c2ccc(O)cc2)oc2cc(O)cc(O)c12` [KAEMPFEROL] had an IC50 in the assay on A-375 of 0.012 µg/mL (≈ 0.0421 µM).

As to `O=c1cc(-c2ccccc2)oc2cc(O)cc(O)c12` [CHRYSIN], 9.5 µM corresponded to half-maximal inhibition with Caco-2 (IC50).

In the assay on A-375, `O=c1c(O)c(-c2ccc(O)c(O)c2)oc2cc(O)cc(O)c12` [QUERCETIN] came in with a half-inhibitory concentration (IC50) of 0.00154 µg/mL (≈ 0.0051 µM).

The molecule `O=c1[nH]cc(F)c(=O)[nH]1` [FLUOROURACIL] gave an IC50 in the assay with Caco-2 of 60 µM.

Take `COc1ccc([C@@H]2CC(=O)c3c(O)cc(O)cc3O2)cc1O` [HESPERETIN]: it took 66.7 µM to reach half-maximal inhibition in the assay with Caco-2 (IC50).

Consider `COc1cc(O)cc(OC)c1C(=O)/C=C/c1ccccc1`, for which the half-maximal inhibitory concentration (IC50) in the assay on CCRF-CEM was no more than 10 µM.

Consider `C[C@@H]1O[C@@H](Oc2c(-c3cc(O)c(O)c(O)c3)oc3cc(O)cc(O)c3c2=O)[C@H](O)[C@H](OC(=O)c2cc(O)c(O)c(O)c2)[C@H]1O`, for which the IC50 in the assay with K562 [1] came out at 30.5 µg/mL.

`O=c1cc(-c2ccccc2)oc2ccccc12` [FLAVONE] returned a half-inhibitory concentration (IC50) in the assay on Caco-2 of 21 µM.

With `COc1cc(O)c(OC)c(O)c1C(=O)/C=C/c1ccccc1`, the half-maximal inhibitory concentration (IC50) in the assay on CCRF-CEM is no more than 10 µM.

Molecule `CC1=Cc2c(C(C)C)ccc(C)c2C(=O)C1=O` showed an IC50 with K562 [1] of 1.45 µM.

Turning to `C[C@H]1O[C@H](Oc2c(-c3ccc(O)cc3)oc3cc(O)cc(O)c3c2=O)[C@@H](O)[C@@H](O)[C@@H]1O` (single isomer, unassigned) [KAEMPFEROL-3-O-RHAMNOSIDE], the half-inhibitory concentration (IC50) in the assay on K562 [2] worked out at 15.2 µM; in assay [3], 4.1 µM.

In the case of `COc1cc(O)cc(O)c1C(=O)/C=C/c1ccccc1` [CARDAMOMIN], in the assay with CCRF-CEM, the IC50 is no more than 10 µM.

Molecule `O=C1c2ccc(O)cc2O[C@H](c2ccc(O)c(O)c2)[C@H]1O` [FUSTIN] gave an IC50 with K562 [1] greater than 100 µg/mL.
